Where a name gives a salt, the structure may show the parent alone.
Tests used:
[1] = target: baculovirus-expressed ALK (Homo sapiens, UniProt Q9UM73); assay: ALK Kinase Assay (ELISA/TRF, PLC-γ substrate); assay type: biochemical; details: read-out: ALK Kinase Inhibition (IC50); also: 1 µM ATP (Km level)
Outline: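 Plates coated with GST–PLC-γ fusion substrate (10 μg/mL in TBS); reaction started with 30 ng/ml ALK, run 15 minutes at 37° C. Phosphotyrosine detected by Eu-N1 PT66 antibody (1 hour, 37° C) and time-resolved fluorescence after enhancement. IC50 from sigmoidal variable-slope fit of percent inhibition versus log concentration.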

[2] = target: T1, NPM-ALK (Homo sapiens, UniProt Q9UM73); assay: ALK Cellular Assay (phospho-NPM-ALK immunoblot / ALK tyrosine phosphorylation ELISA); assay type: cell-based; details: for inhibition at 1 µM: NPM-ALK, 1 μM compound, read-out: ALK Cellular Activity Inhibition Score at 1 μM
T1 construct: a fusion protein consisting of nucleophosmin (NMP) and the intracellular domain of ALK; the other entry of the earlier key: NPM1 (P06748, Nucleophosmin)
Method: Immunoblotting of phospho-NPM-ALK and total NPM-ALK from cell lysates was carried out according to the protocols provided by the antibody suppliers. In brief, after treatment of Example compounds, cells were lysed in Frak lysis buffer [10 mM Tris, pH 7.5, 1% Triton X-100, 50 mM sodium chloride, 20 mM sodium fluoride, 2 mM sodium pyrophosphate, 0.1% BSA, plus freshly prepared 1 mM activated sodium vanadate, 1 mM dithiothreitol (#165680050, ARCOS Organics, Geel, Belgium), and 1 mM PMSF (#837091, Boehringer Mannheim Biochemicals, Indianapolis, Ind.), protease inhibitors cocktail III (#539134-1Set, Calbiochem, 1:100 dilution)]. After brief sonication, the lysates were cleared by centrifugation, mixed with sample buffer and subjected to SDS-PAGE. Following transfer to membranes, the membranes were blotted with either rabbit phospho-NPM-ALK(Y664) (Cat^#3341) or ALK antibody (Cat^#3342) from Cell Signaling Technology (Beverly, Mass.), and then the HRP-conjugated goat anti-rabbit antibodies (Santa Cruz, Calif.) after washed in TBS/0.2% Tween-20. The protein bands were visualized with ECL Western Blotting detection reagents (RPN2106, Amersham Biosciences, Buckinghamshire, UK) and quantitated with gel-pro analyzer 3.1 software.
To measure ALK tyrosine phosphorylation in cells with an ELISA assay, fluoronunc plates (Cat^#437796, Nalge Nunc, Rochester, N.Y.) were pre-coated with goat anti-mouse IgG, and incubated with the capture mouse ALK antibody (Cat^#35-4300, Zymed, Seattle, Wash.) diluted 1:1000 in Superblock (Pierce, Rockford, Ill.). Following blocking, cell lysates were added to plates and incubated overnight at 4° C. Plates were incubated with the detecting antibody, anti-phospho-ALK (Y664) (Cell Signaling Technology), diluted at 1:2000, followed by incubation with goat anti-rabbit-IgG alkaline phosphatase to amplify the detection. Wells were exposed to the fluorogenic substrate 4-MeUP (#3368-04-5, Calbiochem) and the signal quantified using a CytoFluor® (series 4000) Fluorescence Multi-Well Plate Reader (Applied Biosystems, Foster City, Calif.).

[3] = target: T2, c-Met (cytoplasmic domain) (Homo sapiens, UniProt P08581); assay: c-Met Kinase Assay (ELISA/TRF, PLC-γ substrate); assay type: biochemical; details: 3 μM ATP (Km level); read-out: c-Met Kinase Inhibition (IC50)
T2 construct: Reactions were initiated with 30 ng/mL c-Met (cytoplasmic domain, Invitrogen Corporation #PV3143); purchased Invitrogen Corporation PV3143
Outline: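 c-Met cytoplasmic domain (30 ng/mL) phosphorylates plate-coated GST–PLC-γ for 15 min at 37 °C. Phosphotyrosine detected with Eu-labeled PT66 antibody by time-resolved fluorescence. IC50 from variable-slope sigmoidal fit of % inhibition vs log concentration.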

[4] = target: T3, c-Met (phospho-c-Met) in A549 cells (Homo sapiens, UniProt P08581); assay: c-Met Cellular Activity/Autophosphorylation Assay, A549 cells (HGF stimulated); assay type: cell-based; details: 50 ng/mL HGF; for inhibition at 1 µM: 1 μM compound, read-out: c-Met autophosphorylation inhibition score, A549 Cells (1 μM); for inhibition at 3 µM: 3 μM compound, read-out: c-Met autophosphorylation inhibition score, A549 Cells (3 μM)
T3 construct: endogenous in cells; host or cells: HT29, A549 (HGF-stimulated), GTL-16
Method: (§1) HT29 and GTL-16 cells were serum starved for one hour in media containing 0.05% BSA and varying concentrations of Example compounds (1-10 μM). A549 cells were serum starved overnight in media containing 0.05% BSA then treated for one hour with Example compounds followed by a 15 minute stimulation with 50 ng/mL HGF (Peprotech, Rocky Hill, N.J.), respectively. Samples were resolved by electrophoresis on a 3-8% Tris-Acetate gel (40 ma/gel) and then transferred to a nitrocellulose membrane. Membranes were blocked for one hour at room temperature in Odyssey Blocking Buffer (Licor #927-40000) diluted 1:1 with 1×TBS. Membranes were then co-incubated overnight at 4° C. with primary antibodies [total Met (Cell Signaling, #3127) and Phospho-Met (Biosource, #44-888G) 1:1000 each in Odyssey Blocking Buffer diluted 1:1 with 1×TBS-T 0.05%]. The next day, membranes were washed and co-incubated with secondary antibodies [Goat anti mouse IRDye800 (Rockland, #610-132-121) and Goat anti rabbit Alexa fluor 700 (Molecular Probes, #A21038) 1:10,000] in Odyssey Blocking Buffer diluted 1:1 with 1×TBS-T 0.05% for one hour at room temperature protected from light. Blots were then washed and read on the Odyssey Infrared Imager. Total c-Met signal was visualized at 800 nm detection and phospho-c-Met signal was visualized at 700 nm detection.

[5] = target: T4, c-Met (phospho-c-Met) in HT29 cells (Homo sapiens, UniProt P08581); assay: c-Met Cellular Activity/Autophosphorylation Assay, HT29 cells; assay type: cell-based; details: for inhibition at 1 µM: HT-29, 1 μM compound, read-out: c-Met autophosphorylation inhibition score, HT29 Cells (1 μM); for inhibition at 3 µM: HT-29, 3 μM compound, read-out: c-Met autophosphorylation inhibition score, HT29 Cells (3 μM)
T4 construct: endogenous in cells; host or cells: HT29, A549 (HGF-stimulated), GTL-16
Method: as §1

Chain of baculovirus-expressed ALK (Q9UM73 19-1620): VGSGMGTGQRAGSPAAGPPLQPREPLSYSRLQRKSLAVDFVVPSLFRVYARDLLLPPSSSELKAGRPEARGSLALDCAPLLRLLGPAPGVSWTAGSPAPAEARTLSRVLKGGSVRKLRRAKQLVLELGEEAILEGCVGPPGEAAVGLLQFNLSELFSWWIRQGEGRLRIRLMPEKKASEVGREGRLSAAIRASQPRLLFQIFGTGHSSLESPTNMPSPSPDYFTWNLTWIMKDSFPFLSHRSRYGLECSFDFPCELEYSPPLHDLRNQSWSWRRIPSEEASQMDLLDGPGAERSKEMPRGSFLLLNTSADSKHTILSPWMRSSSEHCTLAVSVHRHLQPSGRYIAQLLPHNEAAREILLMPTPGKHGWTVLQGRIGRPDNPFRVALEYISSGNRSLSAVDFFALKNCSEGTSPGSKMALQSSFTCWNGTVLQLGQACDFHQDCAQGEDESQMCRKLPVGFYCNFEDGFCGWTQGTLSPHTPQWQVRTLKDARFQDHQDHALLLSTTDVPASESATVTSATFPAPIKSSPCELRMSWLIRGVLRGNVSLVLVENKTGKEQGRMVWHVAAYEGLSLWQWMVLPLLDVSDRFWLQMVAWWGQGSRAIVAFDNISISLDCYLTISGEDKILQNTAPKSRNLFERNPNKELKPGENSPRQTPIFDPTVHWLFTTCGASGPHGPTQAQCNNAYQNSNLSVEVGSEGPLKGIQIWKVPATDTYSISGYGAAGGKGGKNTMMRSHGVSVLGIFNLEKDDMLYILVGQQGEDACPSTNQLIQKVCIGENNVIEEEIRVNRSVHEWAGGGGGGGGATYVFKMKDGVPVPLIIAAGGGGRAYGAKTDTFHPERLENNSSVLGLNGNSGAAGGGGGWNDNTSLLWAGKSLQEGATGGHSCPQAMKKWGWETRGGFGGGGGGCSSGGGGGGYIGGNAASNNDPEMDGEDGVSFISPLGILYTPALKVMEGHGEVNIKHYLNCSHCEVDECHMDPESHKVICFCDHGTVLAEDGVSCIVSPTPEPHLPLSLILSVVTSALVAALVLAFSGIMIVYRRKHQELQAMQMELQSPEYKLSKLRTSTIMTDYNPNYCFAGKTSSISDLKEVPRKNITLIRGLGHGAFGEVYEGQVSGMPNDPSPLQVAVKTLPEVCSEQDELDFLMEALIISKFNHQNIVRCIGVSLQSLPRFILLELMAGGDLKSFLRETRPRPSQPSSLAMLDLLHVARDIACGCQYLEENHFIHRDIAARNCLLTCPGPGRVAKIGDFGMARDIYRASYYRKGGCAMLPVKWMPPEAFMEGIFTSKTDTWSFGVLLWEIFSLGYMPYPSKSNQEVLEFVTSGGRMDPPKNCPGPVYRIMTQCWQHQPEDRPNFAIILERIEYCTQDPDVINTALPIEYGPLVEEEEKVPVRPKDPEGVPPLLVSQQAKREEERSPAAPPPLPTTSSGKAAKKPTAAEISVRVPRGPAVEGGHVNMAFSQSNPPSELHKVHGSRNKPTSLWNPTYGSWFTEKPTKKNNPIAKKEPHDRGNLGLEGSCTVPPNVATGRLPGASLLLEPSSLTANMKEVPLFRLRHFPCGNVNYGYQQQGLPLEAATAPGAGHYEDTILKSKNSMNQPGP
T4 sequence (P08581 25-1390): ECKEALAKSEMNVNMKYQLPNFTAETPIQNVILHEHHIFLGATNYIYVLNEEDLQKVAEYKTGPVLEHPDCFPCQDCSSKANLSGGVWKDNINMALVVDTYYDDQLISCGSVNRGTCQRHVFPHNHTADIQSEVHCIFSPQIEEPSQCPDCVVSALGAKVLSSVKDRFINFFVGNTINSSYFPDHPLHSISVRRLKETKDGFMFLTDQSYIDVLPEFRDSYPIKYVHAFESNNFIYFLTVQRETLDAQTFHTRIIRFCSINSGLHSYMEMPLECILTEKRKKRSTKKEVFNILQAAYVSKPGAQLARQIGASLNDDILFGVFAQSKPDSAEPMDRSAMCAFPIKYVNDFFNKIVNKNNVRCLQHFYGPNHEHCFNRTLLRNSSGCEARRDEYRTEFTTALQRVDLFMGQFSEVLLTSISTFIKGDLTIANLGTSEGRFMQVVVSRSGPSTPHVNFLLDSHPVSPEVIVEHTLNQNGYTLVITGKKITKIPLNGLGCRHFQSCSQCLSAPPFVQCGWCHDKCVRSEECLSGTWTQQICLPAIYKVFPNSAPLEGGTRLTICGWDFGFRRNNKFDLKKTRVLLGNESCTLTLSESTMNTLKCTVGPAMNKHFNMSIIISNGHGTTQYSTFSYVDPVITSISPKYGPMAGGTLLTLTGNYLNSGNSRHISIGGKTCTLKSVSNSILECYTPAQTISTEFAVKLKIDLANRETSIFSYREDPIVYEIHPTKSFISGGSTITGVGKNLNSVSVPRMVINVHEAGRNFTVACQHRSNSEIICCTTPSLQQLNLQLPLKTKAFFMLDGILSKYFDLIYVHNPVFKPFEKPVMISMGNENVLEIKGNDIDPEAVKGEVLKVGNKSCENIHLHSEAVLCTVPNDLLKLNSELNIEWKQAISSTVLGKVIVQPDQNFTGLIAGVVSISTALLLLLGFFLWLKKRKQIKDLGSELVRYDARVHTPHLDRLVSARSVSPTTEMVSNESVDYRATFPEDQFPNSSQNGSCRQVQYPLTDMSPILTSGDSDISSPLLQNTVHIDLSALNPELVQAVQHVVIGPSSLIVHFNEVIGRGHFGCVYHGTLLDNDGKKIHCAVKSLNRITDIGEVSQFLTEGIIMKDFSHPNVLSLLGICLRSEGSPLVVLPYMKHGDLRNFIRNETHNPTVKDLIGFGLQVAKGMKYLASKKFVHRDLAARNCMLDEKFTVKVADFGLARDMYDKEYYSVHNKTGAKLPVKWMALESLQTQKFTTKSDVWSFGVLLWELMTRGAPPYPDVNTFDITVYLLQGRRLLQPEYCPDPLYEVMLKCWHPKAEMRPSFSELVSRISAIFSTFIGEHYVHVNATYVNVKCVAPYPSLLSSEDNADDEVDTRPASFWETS
T3 sequence (P08581 25-1390): as above
T2 sequence (P08581 956-1390 limits assumed): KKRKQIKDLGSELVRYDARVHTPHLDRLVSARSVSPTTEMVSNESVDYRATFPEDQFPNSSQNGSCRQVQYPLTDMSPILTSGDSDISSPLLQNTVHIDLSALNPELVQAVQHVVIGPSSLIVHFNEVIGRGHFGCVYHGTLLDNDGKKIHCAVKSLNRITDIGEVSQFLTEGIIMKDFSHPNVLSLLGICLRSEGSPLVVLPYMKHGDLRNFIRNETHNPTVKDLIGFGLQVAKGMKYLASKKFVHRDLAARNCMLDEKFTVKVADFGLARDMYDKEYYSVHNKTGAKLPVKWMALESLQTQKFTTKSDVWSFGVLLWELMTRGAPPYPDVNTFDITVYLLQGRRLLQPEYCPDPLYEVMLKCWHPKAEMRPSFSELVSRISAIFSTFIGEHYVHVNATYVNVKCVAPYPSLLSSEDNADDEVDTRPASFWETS

Structure (SMILES) | melting point | IC50 [1] [nM] | IC50 [2] [nM] | IC50 [3] [nM] | inhibition at 1 µM [2] [%] | inhibition at 1 µM [4] [%] | inhibition at 3 µM [4] [%] | inhibition at 1 µM [5] [%] | inhibition at 3 µM [5] [%]
O=C(c1ccc(-c2cnc3c(c2)N(Cc2cc(F)ccc2F)CCN3)cc1)N1CCC(N2CCCC2)CC1 [Example 66, {4-[1-(2,5-Difluorobenzyl)-1,2,3,4-tetrahydropyrido[2,3-b]pyrazin-7-yl]phenyl}-(4-(pyrrolidin-1-yl)piperidin-1-yl)methanone] | 202 to 204 °C | < 100 | ≤ 250 | 1000 to 10000 | – | – | – | – | –
O=S(=O)(CCN1CCCC1)Nc1ccc(-c2cnc3c(c2)N(Cc2cc(F)ccc2F)CCN3)cc1 [Example 51, 2-Pyrrolidin-1-yl-ethanesulfonic acid{4-[1-(2,5-difluorobenzyl)-1,2,3,4-tetrahydropyrido[2,3-b]pyrazin-7-yl]phenyl}-amide] | – | 100 to 1000 | – | 10000 to 100000 | 26 to 50 | – | – | – | –
O=C(c1ccc(-c2cnc3c(c2)N(Cc2cc(F)ccc2F)CCN3)cn1)N1CCOCC1 [Example 76, {5-[1-(2,5-Difluorobenzyl)-1,2,3,4-tetrahydropyrido[2,3-b]pyrazin-7-yl]-pyridin-2-yl}morpholin-4-yl-methanone] | 111 to 113 °C | 100 to 1000 | – | 1000 to 10000 | – | 0 to 25 | 0 to 25 | 0 to 25 | 26 to 50
CN(C)CCCCNC(=O)c1cnc2c(c1)N(Cc1cc(Cl)ccc1C(F)(F)F)CCN2 [Example 295, 1-[5-Chloro-2-(trifluoromethyl)benzyl]-1,2,3,4-tetrahydropyrido[2,3-b]pyrazine-7-carboxylic acid [4-(dimethylamino)butyl]amide] | – | < 100 | 251 to 500 | 1000 to 10000 | – | – | – | – | –
CC(c1cc(F)ccc1F)N1CCNc2ncc(-c3ccc(C(=O)N4CCC[C@H]4CN4CCCC4)cc3)cc21 (stereo partly drawn) [Example 154, S-(4-{1-[1-(2,5-Difluorophenyl)ethyl]-1,2,3,4-tetrahydropyrido[2,3-b]pyrazin-7-yl}phenyl)-{2-[(pyrrolidin-1-yl)methyl]pyrrolidin-1-yl}methanone] | – | < 100 | 251 to 500 | 10000 to 100000 | – | – | – | – | –
O=C1CNc2ncc(-c3ccc(C(=O)N4CCC[C@H]4CN4CCCC4)cc3)cc2N1Cc1c(Cl)cccc1Cl [Example 141, S-1-(2,6-Dichlorobenzyl)-7-[4-((2-pyrrolidin-1-yl)methylpyrrolidine-1-carbonyl)phenyl]-3,4-dihydro-1H-pyrido[2,3-b]pyrazin-2-one] | 188 °C | 100 to 1000 | – | 1000 to 10000 | 51 to 75 | – | – | – | –
O=C1CNc2ncc(-c3ccc(NS(=O)(=O)CCN4CCCC4)cc3)cc2N1Cc1cc(F)ccc1F [Example 48, 2-Pyrrolidin-1-yl-ethanesulfonic acid{4-[1-(2,5-difluorobenzyl)-2-oxo-1,2,3,4-tetrahydropyrido[2,3-b]pyrazin-7-yl]phenyl}-amide] | > 300 °C | 100 to 1000 | – | 1000 to 10000 | 26 to 50 | – | – | – | –
CN1CCN(C(=O)c2ccc(-c3cnc4c(c3)N(Cc3cc(Cl)ccc3Cl)CCN4)cc2)CC1 [Example 132, {4-[1-(2,5-Dichlorobenzyl)-1,2,3,4-tetrahydropyrido[2,3-b]pyrazin-7-yl]phenyl}-(4-methylpiperazin-1-yl)methanone] | – | < 100 | 251 to 500 | 1000 to 10000 | – | – | – | – | –
O=C(c1ccc(-c2cnc3c(c2)N(Cc2ccccc2)CCN3)cc1)N1CCC[C@H]1CN1CCCC1 [Example 38, [4-(1-Benzyl-1,2,3,4-tetrahydropyrido[2,3-b]pyrazin-7-yl)phenyl]-((S)-2-pyrrolidinylmethylpyrrolidin-1-yl)methanone, trifluoroacetic acid salt] | – | 100 to 1000 | 501 to 750 | 100 to 1000 | – | – | – | – | –
CN(C)CCCCNC(=O)c1ccc(-c2cnc3c(c2)N(Cc2c(Cl)cccc2Cl)C(=O)CN3)cc1 [Example 144, 4-[1-(2,6-Dichlorobenzyl)-2-oxo-1,2,3,4-tetrahydropyrido[2,3-b]pyrazin-7-yl]-N-(4-dimethylaminobutyl)benzamide, trifluoroacetic acid salt] | – | 100 to 1000 | – | 1000 to 10000 | 0 to 25 | – | – | – | –
O=C(O)c1ccc(-c2cnc3c(c2)N(Cc2cc(F)ccc2F)CCN3)cn1 [Example 72, 5-[1-(2,5-Difluorobenzyl)-1,2,3,4-tetrahydropyrido[2,3-b]pyrazin-7-yl]-pyridine-2-carboxylic acid] | 240 °C (dec.) | 100 to 1000 | – | 1000 to 10000 | – | 0 to 25 | 0 to 25 | 26 to 50 | 26 to 50

The remaining lines, values ahead:

melting point | IC50 [1] [nM] | IC50 [2] [nM] | IC50 [3] [nM] | inhibition at 1 µM [2] [%] | inhibition at 1 µM [4] [%] | inhibition at 3 µM [4] [%] | inhibition at 1 µM [5] [%] | inhibition at 3 µM [5] [%] | Structure (SMILES)
– | < 100 | 751 to 1000 | 1000 to 10000 | – | – | – | – | – | Fc1ccc(F)c(CN2CCNc3ncc(-c4ccc(N5CCOCC5)nc4)cc32)c1Cl [Example 105, 1-(2-Chloro-3,6-difluorobenzyl)-7-(6-morpholin-4-yl-pyridin-3-yl)-1,2,3,4-tetrahydropyrido[2,3-b]pyrazine]
189 °C | < 100 | ≤ 250 | 100 to 1000 | – | – | – | – | – | FC(F)(F)c1ccc(Cl)cc1CN1CCNc2ncc(-c3ccnc(N4CCNCC4)c3)cc21 [Example 198, 1-[5-Chloro-2-(trifluoromethyl)benzyl]-7-(2-piperazin-1-yl-pyridin-4-yl)-1,2,3,4-tetrahydro-pyrido[2,3-b]pyrazine]
– | < 100 | ≤ 250 | 100 to 1000 | – | – | – | – | – | Fc1ccc(F)c(CN2CCNc3ncc(-c4cccc(N5CCOCC5)c4)cc32)c1Cl [Example 189, 1-(2-Chloro-3,6-difluorobenzyl)-7-(3-morpholin-4-yl-phenyl)-1,2,3,4-tetrahydropyrido[2,3-b]pyrazine]
– | < 100 | 251 to 500 | 1000 to 10000 | – | – | – | – | – | CN1CCN(c2ccc(-c3cnc4c(c3)N(Cc3cc(Cl)ccc3Cl)CCN4)cn2)CC1 [Example 180, 1-(2,5-Dichlorobenzyl)-7-[6-(4-methylpiperazin-1-yl)pyridin-3-yl]-1,2,3,4-tetrahydropyrido[2,3-b]pyrazine]
– | < 100 | 251 to 500 | 1000 to 10000 | – | – | – | – | – | COC1CCN(C(=O)c2ccc(-c3cnc4c(c3)N(Cc3cc(Cl)ccc3C(F)(F)F)CCN4)cc2)CC1 [Example 205]
